Results from patent US20260130857A1, “SUSTAINED-RELEASE INJECTABLE COMPOSITION FOR TREATING OR PREVENTING INFLAMMATORY DISEASE, AND METHOD FOR PREPARING SAME” (INVENTAGE LAB INC., priority 2022, published 2026).

Legend:
MIA-OA model [1] = assay: Paw withdrawal threshold test in osteoarthritis model; format: in vivo, rats; conditions: thereafter (later than 2 hours after administration)
Protocol: After acclimatization, rats were divided into groups, and the area around the left lower limb knee joint of each rate was shaved clean. Then, MIA (monosodium iodoacetate, Sigma, USA), an osteoarthritis-inducing substance, was prepared at a concentration of 60 mg/mL in 0.9% sterile saline and 50 μL was administered intra-articularly to each rat using a BD Ultra-Fine™ II Insulin Syringe. The right knee joint was administered only the same volume of 0.9% sterile saline. Two weeks after MIA administration, the test substances shown in Table 5 below were administered intra-articularly, and the therapeutic efficacy thereof was evaluated. […]
The paw withdrawal response was measured before MIA administration (day 0) and 7 days and 14 days after MIA administration (before test drug administration), and the paw withdrawal response was evaluated after applying mechanical stimulation using an electronic von-Frey aesthesiometer (IITC Life Science, USA) 2 hours, 4 hours, 4 days, 7 days, 11 days, 14 days, 21 days, and 28 days after test drug administration. […] In the measurement method, an electronic von-Frey filament was applied perpendicular to the sole of the paw, the threshold (g force) value at which a rapid withdrawal response occurred was measured. The measurement results were analyzed as the ratio of g forces measured on the left and right paws (left/right). […]

[2] = Rat pharmacokinetic test, single subcutaneous injection; parameters: species or system SD rats; conditions: male, SD, in vivo, CBD solution 300 μg/head, IVL5005 9 mg/head, rat serum, read-out: blood CBD concentration
From the text: The experimental conditions for conducting the rat pharmacokinetic test are as follows:
CBD isolate solution was used as a control. As experimental animals, 6-week-old male SD rats were purchased from Coretech, acclimated for a week, and then tested. The experimental diet was a general feed for experimental animals (Orient), and the rats were raised with free access to water and feed.
At a total of 14 time points, including time 0 (before SC administration of the test substance to the acclimated rats) and 4 hr, 8 hr, 24 hr, 3 d, 5 d, 1 w, 2 w, 4 w, 6 w, 8 w, and 12 w after SC administration of the test substance, 500 to 1,000 μL of blood was sampled from the jugular vein at each time point, and then immediately, the blood was centrifuged at 1,000 g for 10 minutes to separate the serum, which was then frozen and stored at −70° C.

MIA-OA model [3] = assay: Trial for treatment of osteoarthritis (OA): weight-bearing and paw withdrawal tests taken together; format: in vivo, rats
Protocol: (§1) After acclimatization, rats were divided into groups, and the area around the left lower limb knee joint of each rate was shaved clean. Then, MIA (monosodium iodoacetate, Sigma, USA), an osteoarthritis-inducing substance, was prepared at a concentration of 60 mg/mL in 0.9% sterile saline and 50 μL was administered intra-articularly to each rat using a BD Ultra-Fine™ II Insulin Syringe. The right knee joint was administered only the same volume of 0.9% sterile saline. Two weeks after MIA administration, the test substances shown in Table 5 below were administered intra-articularly, and the therapeutic efficacy thereof was evaluated.
(§2) CBD solution and Examples 2 to 4 were each administered to the left knee joint cavity 14 days after MIA administration, and only the same amount of 0.9% sterile saline was administered to the right knee joint. The normal control and positive control groups were also administered the same amount of 0.9% saline.

[4] = Body weight measurement in MIA-induced osteoarthritis trial; format: in vivo; conditions: MIA rats, single IA dose: CBD solution 300 ug/joint, Examples 2 and 4 2 mg/joint, Example 3 1 mg/joint; test period
Protocol: as §1, §2
However, when CBD was administered, it was confirmed that the body weight gain increased compared to that in the positive control as feed intake activity was improved due to a decrease in pain. This tendency was particularly significant in Examples 3 and 4.

In the case of `C=C(C)[C@@H]1CCC(C)=C[C@H]1c1c(O)cc(CCCCC)cc1O` [CBD solution, Cannabidiol], the “paw withdrawal threshold ratio compared to control group” value (MIA-OA model [1]) is reported as “no difference”, the concentration at 1 w ([2]; 1 w after single SC) is reported as 361 ng/mL and the concentration at 2 w ([2]; 2 w after single SC) is reported as 0 ng/mL. For the same molecule, the concentration at 4 w ([2]; 4 w after single SC) was 0 ng/mL, the concentration at 7 w ([2]; 7 w after single SC) was 0 ng/mL and the concentration at 1 d ([2]; 1 d after single SC) was 3940 ng/mL. The “therapeutic effect compared to the PC group” value (MIA-OA model [3]; after the early stage / long term (to day 28)) was “no difference from the PC group”, the “therapeutic effect compared to the PC group” value (MIA-OA model [3]; early stage of administration) was “showed an effect” and the “body weight gain compared to positive control group” value [4] was “tended to increase”.
